Measurements: patent publication US20240299559A1, “COMPOUNDS THAT MEDIATE PROTEIN DEGRADATION AND METHODS OF USE THEREOF” (Monte Rosa Therapeutics, Inc., priority 2021, published 2024)

What was measured:
CDK2 = molecular target: T1, CDK2 (Homo sapiens, UniProt P24941); test: CDK2 HiBiT assay (degradation, Dmax); assay type: cell-based; details: HEK293 clonal lines with CRISPR KI HiBiT tag on CDK2, stably expressing LgBiT; 24 hours incubation
T1 construct: HEK293 clonal lines with CRISPR KI HiBiT tag on CDK2 proteins; host or cells: HEK293 clonal line with CRISPR knock-in HiBiT on CDK2, stably expressing LgBiT
Experimental: HEK293 clonal lines with CRISPR KI HiBiT tag on CDK2 proteins and stably expressing LgBiT protein were obtained from Promega (Madison, WI). Cells were plated at 5000 cells per well using Multiflo (BioTek) in 384-well white solid bottom plates (Corning, 3570BC) in 25 ul volume in DMEM media (DMEM, high glucose, HEPES, no phenol red (ThermoFisher Scientific, 21063029)) containing 10% FBS (Corning, 35-075-CV), 1% Penicillin/Streptomycin (ThermoFisher Scientific, 15140-122). Cells were incubated for 16 hours at 37° C., 5% CO2. 75 nL of a compound at 30 μM were dosed into the plate using an Echo® 650 liquid handler (Labcyte). Cells were incubated at 37° C., 5% CO2 for 24 hours. 5 ul of HiBiT Lysis Reagent (Promega, N3030) is added using Combi Multidrop (ThermoFisher Scientific), plates are incubated for 15′ at 37° C., 5% CO2 and then signal was read on a Pherastar FSX using “LUM plus” optic module.
Analysis was performed in Scinamic (Scinamic, Cambridge, MA). Luminescence response (R) was calculated by the formula: response=100*(S−N)/(P−N) where S is the signal of the well, N and P the mean negative and positive control values respectively of the same plate. The luminescence response was then fitted in Scinamic using a 3-parameter agonist logistic fit (hillslope=1, EC50>0, top/bottom unconstrained).

CRBN-DDB1 = CRBN-DDB1 (Homo sapiens, UniProt Q96SW2); test: Compound binding to CRBN by HTRF assay; details: CRBN-DDB1 2.5 nM, Cy5-Thalidomide 100 nM probe; Ki from geometric mean of IC50 by Cheng-Prustoff transformation
Sequence of CRBN-DDB1 (Q96SW2 whole entry): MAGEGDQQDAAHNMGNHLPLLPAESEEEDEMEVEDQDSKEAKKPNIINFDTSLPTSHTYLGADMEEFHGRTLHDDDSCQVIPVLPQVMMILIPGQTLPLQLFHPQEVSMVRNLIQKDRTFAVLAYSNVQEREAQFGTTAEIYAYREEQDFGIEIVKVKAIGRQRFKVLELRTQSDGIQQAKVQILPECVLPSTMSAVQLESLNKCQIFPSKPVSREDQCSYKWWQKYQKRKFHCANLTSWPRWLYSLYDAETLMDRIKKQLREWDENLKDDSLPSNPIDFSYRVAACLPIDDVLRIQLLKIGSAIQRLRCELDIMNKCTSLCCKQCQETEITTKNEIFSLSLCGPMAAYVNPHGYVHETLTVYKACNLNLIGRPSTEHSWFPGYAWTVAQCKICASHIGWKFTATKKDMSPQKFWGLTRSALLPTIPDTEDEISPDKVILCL
Sequence of CRBN-DDB1 (Q16531 whole entry partner): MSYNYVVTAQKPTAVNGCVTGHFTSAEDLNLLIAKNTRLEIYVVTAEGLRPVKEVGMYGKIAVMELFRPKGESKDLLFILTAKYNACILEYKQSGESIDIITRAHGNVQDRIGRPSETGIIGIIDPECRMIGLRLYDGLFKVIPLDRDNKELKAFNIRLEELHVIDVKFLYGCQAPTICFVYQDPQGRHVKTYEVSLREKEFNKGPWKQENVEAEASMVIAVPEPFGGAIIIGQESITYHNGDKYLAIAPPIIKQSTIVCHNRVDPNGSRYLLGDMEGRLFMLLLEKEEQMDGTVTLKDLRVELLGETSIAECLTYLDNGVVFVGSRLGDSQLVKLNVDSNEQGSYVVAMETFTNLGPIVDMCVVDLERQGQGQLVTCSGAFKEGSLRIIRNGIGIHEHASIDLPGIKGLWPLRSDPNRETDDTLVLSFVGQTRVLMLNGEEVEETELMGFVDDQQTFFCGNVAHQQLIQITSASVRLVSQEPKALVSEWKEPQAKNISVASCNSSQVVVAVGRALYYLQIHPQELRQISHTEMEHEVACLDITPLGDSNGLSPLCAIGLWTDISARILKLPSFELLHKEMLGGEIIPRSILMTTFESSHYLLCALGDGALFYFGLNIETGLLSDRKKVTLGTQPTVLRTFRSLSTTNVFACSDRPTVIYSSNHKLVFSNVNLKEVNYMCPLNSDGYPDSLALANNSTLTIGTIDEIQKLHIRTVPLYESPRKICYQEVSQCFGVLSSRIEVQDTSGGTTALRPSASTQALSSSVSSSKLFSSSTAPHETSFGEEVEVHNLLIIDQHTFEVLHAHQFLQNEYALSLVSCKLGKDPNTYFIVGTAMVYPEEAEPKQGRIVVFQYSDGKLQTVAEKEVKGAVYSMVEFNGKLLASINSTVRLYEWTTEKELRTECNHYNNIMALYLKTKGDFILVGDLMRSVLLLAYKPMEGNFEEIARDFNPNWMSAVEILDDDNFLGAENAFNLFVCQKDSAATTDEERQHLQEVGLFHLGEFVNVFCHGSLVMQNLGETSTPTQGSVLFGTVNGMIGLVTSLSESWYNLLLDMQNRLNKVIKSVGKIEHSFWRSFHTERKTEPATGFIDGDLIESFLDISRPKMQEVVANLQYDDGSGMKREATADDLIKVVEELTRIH
Experimental: Compound activity was monitored in a Homogenous Time-Resolved Fluorescence (HTRF) assay using 1-[5-({2-[2-(2-{[2-(2,6-dioxopiperidin-3-yl)-1,3-dioxo-2,3-dihydro-1H-isoindol-4-yl]oxy}acetamido)ethoxy]ethyl}carbamoyl)pentyl]-3,3-dimethyl-2-[(1E,3E)-5-[(2E)-1,3,3-trimethyl-5-sulfo-2,3-dihydro-1H-indol-2-ylidene]penta-1,3-dien-1-yl]-3H-indol-1-ium-5-sulfonate as a fluorescent probe. Biochemical assays were conducted in Greiner white 384 well HiBase plates (Cat. No 784075-25) in 10 μL total volume. A one pot detection solution of CRBN-DDB1 (2.5 nM), Anti-His Terbium Cryptate Gold (1×, PerkinElmer Cat. #: 61HI2TLB), and Cy5-Thalidomide (100 nM, Tenova Cat.: T52461) was prepared in 20 mM HEPES, 20 mM NaCl, 0.2 mM TCEP, 0.2 mM EDTA, and 0.005% Tween20 was dispensed to each assay plate. Compounds were stored in dry, ambient temperatures at 10 mM. A 10-point, 1:3 dilution series was prepared from 10 mM stock concentrations in Echo-compatible LDV plates. 10 nL of each compound dilution series was dispensed into assays wells using an Echo 650 (Labcyte inc. USA). 10 nL of 10 mM Lenalidomide was transferred into the active-control wells for the assay and 10 nL of DMSO was transferred into the neutral-control wells. The assay was then allowed to incubate for 30 min at ambient temperature after transferring compound. Plate measurements were taken on a Pherastar FSX (BMG Labtech, Germany) using the HTRF Red filter (Ex. 337 nm, em1:620 nm, em2:665 nm) (Flashes: 50, Integration time: 60-400 us, Z-height: 10 mm, Ratio-multipler: 10,000). The HTRF signal was then subsequently normalized to the neutral and active controls. Analysis and IC50 values were derived using KNIME analytics (KNIME Zurich) transformation and fitting within Collaborative Drug Discovery (Collaborative Drug Discovery USA). Ki was derived from the geometric mean of the IC50 values using the Cheng-Prustoff transformation.

SMILES | Dmax (CDK2) [%] | Ki (CRBN-DDB1) [µM]
CSc1cccc(COC(=O)NCc2ccc3c(c2)C(=O)N(C2CCC(=O)NC2=O)C3)c1 (stereo not shown) [Compound 35, [3-(methylsulfanyl)phenyl]methyl N-{[2-(2,6-dioxopiperidin-3-yl)-3-oxo-2,3-dihydro-1H-isoindol-5-yl]methyl}carbamate] | 10 to 50 | ≤ 0.1
O=C(CCc1cccc(-c2ccc(F)cc2)c1)NCc1ccc2c(c1)C(=O)N(C1CCC(=O)NC1=O)C2 (stereo not shown) [Compound 21, N-((2-(2,6-dioxopiperidin-3-yl)-3-oxoisoindolin-5-yl)methyl)-3-(4′-fluoro-[1,1′-biphenyl]-3-yl)propanamide] | ≤ 10 | ≤ 0.1
COc1cc(COC(=O)NCc2ccc3c(c2)C(=O)N(C2CCC(=O)NC2=O)C3)ccc1F (stereo not shown) [Compound 44, (4-fluoro-3-methoxyphenyl)methyl N-{[2-(2,6-dioxopiperidin-3-yl)-3-oxo-2,3-dihydro-1H-isoindol-5-yl]methyl}carbamate] | 10 to 50 | ≤ 0.1
CCOc1c(C)cc(COC(=O)NCc2ccc3c(c2)C(=O)N(C2CCC(=O)NC2=O)C3)cc1C (stereo not shown) [Compound 34, (4-ethoxy-3,5-dimethylphenyl)methyl N-{[2-(2,6-dioxopiperidin-3-yl)-3-oxo-2,3-dihydro-1H-isoindol-5-yl]methyl}carbamate] | 10 to 50 | ≤ 0.1
CCCc1ccc(COC(=O)NCc2ccc3c(c2)C(=O)N(C2CCC(=O)NC2=O)C3)cc1 (stereo not shown) [Compound 43, (4-propylphenyl)methyl N-{[2-(2,6-dioxopiperidin-3-yl)-3-oxo-2,3-dihydro-1H-isoindol-5-yl]methyl}carbamate] | 10 to 50 | ≤ 0.1
O=C1CCC(N2Cc3ccc(CNC(=O)OCc4ccc(C5CC5)cc4)cc3C2=O)C(=O)N1 (stereo not shown) [Compound 64, (4-cyclopropylphenyl)methyl N-{[2-(2,6-dioxopiperidin-3-yl)-3-oxo-2,3-dihydro-1H-isoindol-5-yl]methyl}carbamate] | 10 to 50 | 0.1 to 1
CC(C)c1ccc(COC(=O)NCc2ccc3c(c2)C(=O)N(C2CCC(=O)NC2=O)C3)cc1 (stereo not shown) [Compound 60, [4-(propan-2-yl)phenyl]methyl N-{[2-(2,6-dioxopiperidin-3-yl)-3-oxo-2,3-dihydro-1H-isoindol-5-yl]methyl}carbamate] | 10 to 50 | ≤ 0.1
O=C1CCC(N2Cc3ccc(CNC(=O)OCc4ccc(N5CCCC5=O)cc4)cc3C2=O)C(=O)N1 (stereo not shown) [Compound 17, 4-(2-oxopyrrolidin-1-yl)benzyl ((2-(2,6-dioxopiperidin-3-yl)-3-oxoisoindolin-5-yl)methyl)carbamate] | 10 to 50 | 0.1 to 1
O=C1CCC(N2Cc3ccc(CNC(=O)OCc4ccc(C5CCCO5)cc4)cc3C2=O)C(=O)N1 (stereo not shown) [Compound 18] | 10 to 50 | 0.1 to 1
O=C1CCC(N2Cc3ccc(CNC(=O)OCc4cc(-c5ccccc5)ccn4)cc3C2=O)C(=O)N1 (stereo not shown) [Compound 14, (4-phenylpyridin-2-yl)methyl ((2-(2,6-dioxopiperidin-3-yl)-3-oxoisoindolin-5-yl)methyl)carbamate] | 10 to 50 | 0.1 to 1
O=C1CCC(N2Cc3ccc(CNC(=O)OCc4ccc(C5CCCC5)cc4)cc3C2=O)C(=O)N1 (stereo not shown) [Compound 37, (4-cyclopentylphenyl)methyl N-{[2-(2,6-dioxopiperidin-3-yl)-3-oxo-2,3-dihydro-1H-isoindol-5-yl]methyl}carbamate] | 10 to 50 | ≤ 0.1
O=C1CCC(N2Cc3ccc(CNC(=O)OCc4ccc(CN5CCCCC5)cc4)cc3C2=O)C(=O)N1 (stereo not shown) [Compound 53, {4-[(piperidin-1-yl)methyl]phenyl}methyl N-{[2-(2,6-dioxopiperidin-3-yl)-3-oxo-2,3-dihydro-1H-isoindol-5-yl]methyl}carbamate] | ≤ 10 | 0.1 to 1
Cc1ccc(-c2cccc(COC(=O)NCc3ccc4c(c3)C(=O)N(C3CCC(=O)NC3=O)C4)c2)cc1 (stereo not shown) [Compound 7, (4′-methyl-[1,1′-biphenyl]-3-yl)methyl ((2-(2,6-dioxopiperidin-3-yl)-3-oxoisoindolin-5-yl)methyl)carbamate] | 10 to 50 | 0.1 to 1
N#Cc1cc(CNc2nnc(-c3ccc(OC(F)(F)F)cc3)o2)cc2c1CN(C1CCC(=O)NC1=O)C2=O (stereo not shown) [Compound 74, 2-(2,6-dioxopiperidin-3-yl)-1-oxo-6-(((5-(4-(trifluoromethoxy)phenyl)-1,3,4-oxadiazol-2-yl)amino)methyl)isoindoline-4-carbonitrile] | 10 to 50 | 0.1 to 1
O=C1CCC(N2Cc3ccc(CNC(=O)OCc4cccc([N+](=O)[O-])c4)cc3C2=O)C(=O)N1 (stereo not shown) [Compound 32, (3-nitrophenyl)methyl N-{[2-(2,6-dioxopiperidin-3-yl)-3-oxo-2,3-dihydro-1H-isoindol-5-yl]methyl}carbamate] | ≤ 10 | 0.1 to 1
Cc1ccc(COC(=O)NCc2ccc3c(c2)C(=O)N(C2CCC(=O)NC2=O)C3)c(C)c1 (stereo not shown) [Compound 30, (2,4-dimethylphenyl)methyl N-{[2-(2,6-dioxopiperidin-3-yl)-3-oxo-2,3-dihydro-1H-isoindol-5-yl]methyl}carbamate] | 10 to 50 | 0.1 to 1
CCOc1ccc(COC(=O)NCc2ccc3c(c2)C(=O)N(C2CCC(=O)NC2=O)C3)c(C)c1 (stereo not shown) [Compound 41, (4-ethoxy-2-methylphenyl)methyl N-{[2-(2,6-dioxopiperidin-3-yl)-3-oxo-2,3-dihydro-1H-isoindol-5-yl]methyl}carbamate] | 10 to 50 | 0.1 to 1
O=C1CCC(N2Cc3ccc(CNC(=O)OCc4cccc(SC(F)(F)F)c4)cc3C2=O)C(=O)N1 (stereo not shown) [Compound 56, {3-[(trifluoromethyl)sulfanyl]phenyl}methyl N-{[2-(2,6-dioxopiperidin-3-yl)-3-oxo-2,3-dihydro-1H-isoindol-5-yl]methyl}carbamate] | 10 to 50 | ≤ 0.1
O=C1CCC(N2Cc3ccc(CNC(=O)OCc4ccc(C(F)(F)F)nc4)cc3C2=O)C(=O)N1 (stereo not shown) [Compound 66, [6-(trifluoromethyl)pyridin-3-yl]methyl N-{[2-(2,6-dioxopiperidin-3-yl)-3-oxo-2,3-dihydro-1H-isoindol-5-yl]methyl}carbamate] | 10 to 50 | ≤ 0.1
O=C1CCC(N2Cc3ccc(CNC(=O)OCc4cccc(-c5ccc(F)cc5)n4)cc3C2=O)C(=O)N1 (stereo not shown) [Compound 4, (6-(4-fluorophenyl)pyridin-2-yl)methyl((2-(2,6-dioxopiperidin-3-yl)-3-oxoisoindolin-5-yl)methyl)carbamate] | 10 to 50 | 0.1 to 1
CC(C)(C)c1cccc(COC(=O)NCc2ccc3c(c2)C(=O)N(C2CCC(=O)NC2=O)C3)c1 (stereo not shown) [Compound 45, (3-tert-butylphenyl)methyl N-{[2-(2,6-dioxopiperidin-3-yl)-3-oxo-2,3-dihydro-1H-isoindol-5-yl]methyl}carbamate] | 10 to 50 | ≤ 0.1
O=C1CCC(N2Cc3ccc(CNC(=O)OCc4cccc(-c5ccccc5)c4)cc3C2=O)C(=O)N1 (stereo not shown) [Compound 6, [1,1′-biphenyl]-3-ylmethyl ((2-(2,6-dioxopiperidin-3-yl)-3-oxoisoindolin-5-yl)methyl)carbamate] | 10 to 50 | ≤ 0.1
O=C1CCC(N2Cc3ccc(CNC(=O)OCc4cccc(-c5ccc(Cl)cc5)c4)cc3C2=O)C(=O)N1 (stereo not shown) [Compound 8, (4′-chloro-[1,1′-biphenyl]-3-yl)methyl ((2-(2,6-dioxopiperidin-3-yl)-3-oxoisoindolin-5-yl)methyl)carbamate] | 10 to 50 | 0.1 to 1
